Laboratory results reported in PubChem BioAssay (NCI).
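Protocol summary: plate cells (96-well), add compound at 5 concentrations, incubate 48 h, interpolate endpoints linearly. At the TGI there is no net growth.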

What was measured:
Experiment in all cases: inhibition of tumour cell growth, NCI panel, 48 h
SNB-75 CNS = system: SNB-75 CNS
UACC-62 melanoma = system: UACC-62 melanoma
UACC-257 melanoma = system: UACC-257 melanoma
COLO 205 colon = system: COLO 205 colon
HOP-92 NSCLC = system: HOP-92 NSCLC
MOLT-4 leukemia = system: MOLT-4 leukemia
DLD-1 colon = system: DLD-1 colon
SN12C renal = system: SN12C renal
EKVX NSCLC = system: EKVX NSCLC
CCRF-CEM leukemia = system: CCRF-CEM leukemia
OVCAR-3 ovarian = system: OVCAR-3 ovarian
DMS 273 small cell lung = system: DMS 273 small cell lung
NCI-H460 lung = system: NCI-H460 lung
HT29 colon = system: HT29 colon
786-0 renal = system: 786-0 renal
SNB-78 CNS = system: SNB-78 CNS
SR leukemia = system: SR leukemia
OVCAR-4 ovarian = system: OVCAR-4 ovarian
HCT-116 colon = system: HCT-116 colon
OVCAR-8 ovarian = system: OVCAR-8 ovarian
A498 renal = system: A498 renal
HOP-62 NSCLC = system: HOP-62 NSCLC
LXFL 529 NSCLC = system: LXFL 529 NSCLC
RPMI-8226 leukemia = system: RPMI-8226 leukemia
SK-MEL-2 melanoma = system: SK-MEL-2 melanoma
HCT-15 colon = system: HCT-15 colon
KM20L2 colon = system: KM20L2 colon
HOP-18 NSCLC = system: HOP-18 NSCLC
K-562 leukemia = system: K-562 leukemia
M19-MEL melanoma = system: M19-MEL melanoma
SK-MEL-28 melanoma = system: SK-MEL-28 melanoma
HCC-2998 colon = system: HCC-2998 colon
SW-620 colon = system: SW-620 colon
SNB-19 CNS = system: SNB-19 CNS
UO-31 renal = system: UO-31 renal
NCI-H23 lung = system: NCI-H23 lung
SF-539 CNS = system: SF-539 CNS
IGROV1 ovarian = system: IGROV1 ovarian
KM12 colon = system: KM12 colon
DMS 114 small cell lung = system: DMS 114 small cell lung
CAKI-1 renal = system: CAKI-1 renal
SF-295 CNS = system: SF-295 CNS
U251 CNS = system: U251 CNS
RXF 393 renal = system: RXF 393 renal
ACHN renal = system: ACHN renal
HL-60(TB) leukemia = system: HL-60(TB) leukemia
A549 NSCLC = system: A549 NSCLC
TK-10 renal = system: TK-10 renal
OVCAR-5 ovarian = system: OVCAR-5 ovarian
SF-268 CNS = system: SF-268 CNS
SK-MEL-5 melanoma = system: SK-MEL-5 melanoma
NCI-H522 lung = system: NCI-H522 lung
MALME-3M melanoma = system: MALME-3M melanoma
LOX IMVI melanoma = system: LOX IMVI melanoma
SK-OV-3 ovarian = system: SK-OV-3 ovarian
M14 melanoma = system: M14 melanoma

What does the source list for `COC1/C(=C\c2ccccc2I)c2ccccc2N1C(C)=O` (centres undefined)?
TGI (SNB-75 CNS): 55 µM; TGI (UACC-62 melanoma): 26.7 µM; TGI (UACC-257 melanoma): 44.1 µM; TGI (COLO 205 colon): 31.5 µM; TGI (HOP-92 NSCLC): 8.99 µM; TGI (MOLT-4 leukemia): 35.8 µM; TGI (DLD-1 colon): 43.4 µM; TGI (SN12C renal): 28.8 µM; TGI (EKVX NSCLC): 39.6 µM; TGI (CCRF-CEM leukemia): 59.1 µM; TGI (OVCAR-3 ovarian): 31.2 µM; TGI (DMS 273 small cell lung): 27.1 µM; TGI (NCI-H460 lung): 33.5 µM; TGI (HT29 colon): 37.1 µM; TGI (786-0 renal): 33.3 µM; TGI (SNB-78 CNS): 82.5 µM; TGI (SR leukemia): 42.9 µM; TGI (OVCAR-4 ovarian): 32.1 µM; TGI (HCT-116 colon): 26.8 µM; TGI (OVCAR-8 ovarian): > 100 µM; TGI (A498 renal): 30.1 µM; TGI (HOP-62 NSCLC): 32.7 µM; TGI (LXFL 529 NSCLC): 87.4 µM; TGI (RPMI-8226 leukemia): 39.1 µM; TGI (SK-MEL-2 melanoma): 32.5 µM; TGI (HCT-15 colon): 37.4 µM; TGI (KM20L2 colon): 30 µM; TGI (HOP-18 NSCLC): 38.1 µM; TGI (K-562 leukemia): 53.3 µM; TGI (M19-MEL melanoma): 42.4 µM; TGI (SK-MEL-28 melanoma): 38.3 µM; TGI (HCC-2998 colon): 33.9 µM; TGI (SW-620 colon): 39.2 µM; TGI (SNB-19 CNS): 60.4 µM; TGI (UO-31 renal): 9.91 µM; TGI (NCI-H23 lung): 36.5 µM; TGI (SF-539 CNS): 31.2 µM; TGI (IGROV1 ovarian): 39.6 µM; TGI (KM12 colon): 29 µM; TGI (DMS 114 small cell lung): 38.7 µM; TGI (CAKI-1 renal): 50 µM; TGI (SF-295 CNS): 29.2 µM; TGI (U251 CNS): 42.6 µM; TGI (RXF 393 renal): 22.3 µM; TGI (ACHN renal): > 100 µM; TGI (HL-60(TB) leukemia): 16.1 µM; TGI (A549 NSCLC): 35.8 µM

`Nc1nc(N)c2ncn(CCCC(c3ccccc3)P(=O)(O)O)c2n1` (centres undefined) was tested. Which TGI (SNB-75 CNS) did it give?
The TGI was over 100 µM.

What about the TGI (TK-10 renal) of the same compound?
Its TGI is over 100 µM.

And the TGI (UACC-62 melanoma)?
The TGI was over 100 µM.

What about the TGI (UACC-257 melanoma) of the same compound?
Its TGI is over 100 µM.

And the TGI (COLO 205 colon)?
The TGI was over 100 µM.

What about the TGI (HOP-92 NSCLC) of the same compound?
Its TGI is over 100 µM.

What about the TGI (DLD-1 colon) of the same compound?
Its TGI is over 100 µM.

And the TGI (SN12C renal)?
Its TGI is over 100 µM.

And the TGI (CCRF-CEM leukemia)?
Its TGI is over 100 µM.

What about the TGI (OVCAR-3 ovarian) of the same compound?
The TGI was over 100 µM.

What about the TGI (OVCAR-5 ovarian) of the same compound?
The TGI was over 100 µM.

What about the TGI (DMS 273 small cell lung) of the same compound?
The TGI was over 100 µM.

And the TGI (NCI-H460 lung)?
The TGI was over 100 µM.

And the TGI (SF-268 CNS)?
The TGI was over 100 µM.

What about the TGI (HT29 colon) of the same compound?
The TGI was over 100 µM.

What about the TGI (786-0 renal) of the same compound?
The TGI was over 100 µM.

What about the TGI (SK-MEL-5 melanoma) of the same compound?
Its TGI is over 100 µM.

And the TGI (NCI-H522 lung)?
Its TGI is over 100 µM.

And the TGI (SNB-78 CNS)?
Its TGI is over 100 µM.

And the TGI (SR leukemia)?
Its TGI is over 100 µM.

What about the TGI (HCT-116 colon) of the same compound?
Its TGI is over 100 µM.

And the TGI (OVCAR-8 ovarian)?
The TGI was over 100 µM.

What about the TGI (MALME-3M melanoma) of the same compound?
Its TGI is over 100 µM.

And the TGI (A498 renal)?
The TGI was over 100 µM.

And the TGI (HOP-62 NSCLC)?
The TGI was over 100 µM.

What about the TGI (LXFL 529 NSCLC) of the same compound?
Its TGI is over 100 µM.

What about the TGI (RPMI-8226 leukemia) of the same compound?
Its TGI is over 100 µM.

What about the TGI (SK-MEL-2 melanoma) of the same compound?
Its TGI is over 100 µM.

And the TGI (HCT-15 colon)?
Its TGI is over 100 µM.

What about the TGI (KM20L2 colon) of the same compound?
Its TGI is over 100 µM.

And the TGI (HOP-18 NSCLC)?
The TGI was over 100 µM.

And the TGI (K-562 leukemia)?
Its TGI is over 100 µM.

What about the TGI (M19-MEL melanoma) of the same compound?
Its TGI is over 100 µM.

And the TGI (SK-MEL-28 melanoma)?
The TGI was over 100 µM.

And the TGI (HCC-2998 colon)?
Its TGI is over 100 µM.

What about the TGI (SW-620 colon) of the same compound?
The TGI was over 100 µM.

And the TGI (SNB-19 CNS)?
The TGI was over 100 µM.

What about the TGI (LOX IMVI melanoma) of the same compound?
Its TGI is over 100 µM.

What about the TGI (UO-31 renal) of the same compound?
The TGI was over 100 µM.

And the TGI (NCI-H23 lung)?
Its TGI is 36 µM.

What about the TGI (SF-539 CNS) of the same compound?
Its TGI is over 100 µM.

And the TGI (IGROV1 ovarian)?
Its TGI is over 100 µM.

And the TGI (KM12 colon)?
Its TGI is over 100 µM.

What about the TGI (DMS 114 small cell lung) of the same compound?
The TGI was over 100 µM.

And the TGI (SK-OV-3 ovarian)?
Its TGI is over 100 µM.

And the TGI (CAKI-1 renal)?
The TGI was over 100 µM.

What about the TGI (SF-295 CNS) of the same compound?
The TGI was over 100 µM.

What about the TGI (U251 CNS) of the same compound?
Its TGI is over 100 µM.

And the TGI (ACHN renal)?
The TGI was over 100 µM.

And the TGI (HL-60(TB) leukemia)?
Its TGI is over 100 µM.

And the TGI (A549 NSCLC)?
The TGI was over 100 µM.

And the TGI (M14 melanoma)?
Its TGI is over 100 µM.
